Here are results for 22 compounds from patent US12145944B2, “Imidazopyrimidines as EED inhibitors and the use thereof” (THE REGENTS OF THE UNIVERSITY OF MICHIGAN, priority 2019, dated 2024).

Assay [1] deals with Pfeiffer cell line. Description: Anti-proliferative activity, Pfeiffer cell line, 7 day treatment. Format: cell-based. The settings on record: Homo sapiens, 168 h, 7 day treatment, read-out: Pfeiffer Cell line. The method, boiled down:
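Cells seeded at 2 000-3 000 per well were treated with serially diluted compounds for 7 days at 37° C, 5% CO2. Growth was measured by WST-8 assay read at 450 nm after 1-4 h reagent incubation. Readings were normalized to DMSO-treated cells and IC50 values derived by nonlinear regression.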

For assay [2], the system named is KARPAS422 human B cell lymphoma cell. Description: Cell proliferation, KARPAS422, 7 day treatment (WST-8). Format: cell-based. The conditions noted are these: Homo sapiens, KARPAS-422, 168 h, 7 day treatment, read-out: Karpas Cell line. The method, boiled down:
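Read-out was WST-8 absorbance at 450 nm after 1-4 h with reagent, taken after 7-day compound treatment (serial dilutions, 37 °C, 5% CO2) of 2 000-3 000 KARPAS422 cells per well. IC50 fitted by nonlinear regression on DMSO-normalized values.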

Setting [3] is: anti-proliferative IC50, Pfeiffer cell line.
Where [4] appears, read: anti-proliferative IC50, Karpas 422 cell line.
[5] abbreviates: anti-proliferative IC50 class, Pfeiffer cell line.
Setting [6] is: anti-proliferative IC50 class, Karpas 422 cell line.

Read-outs that look alike come from different tables or passages of the source.

As for `CCN1Cc2cc(C(F)(F)F)ncc2-c2cnc(NCc3c(F)ccc4c3CCO4)n3cnc(c23)C1=O` [compound 90, 4-ethyl-12-(((5-fluoro-2,3-dihydrobenzofuran-4-yl)methyl)amino)-7-(trifluoromethyl)-4,5-dihydro-3H-2,4,8,11,12a-pentaazabenzo[4,5]cycloocta[1,2,3-cd]inden-3-one], the IC50 in assay [1] (setting [3]) was 0.044 nM; in assay [2] (setting [4]), 0.078 nM.
Regarding `O=C1NCc2ccccc2-c2cnc(NCc3c(F)ccc4c3CCO4)n3cnc1c23` [compound 15, 12-(((5-fluoro-2,3-dihydrobenzofuran-4-yl)methyl)amino)-4,5-dihydro-3H-2,4,11,12a-tetraazabenzo[4,5]cycloocta[1,2,3-cd]inden-3-one], the IC50 in assay [1] (setting [3]) came to 1.25 nM; in assay [2] (setting [4]), 4.36 nM.
For `COc1cccc(F)c1CNc1ncc2c3c(ncn13)C(=O)OCc1cc(C(F)(F)F)ccc1-2` [compound 28, 12-((2-fluoro-6-methoxybenzyl)amino)-7-(trifluoromethyl)-3H,5H-4-oxa-2,11,12a-triazabenzo[4,5]cycloocta[1,2,3-cd]inden-3-one], in that order: greater than 100 nM and greater than 100 nM.
Take `Cc1ccc2c(n1)CN(C(C)C)C(=O)c1ncn3c(NCc4c(F)ccc5c4CCO5)ncc-2c13` [E 1, 12-(((5-fluoro-2,3-dihydrobenzofuran-4-yl)methyl)amino)-4-isopropyl-7-methyl-4,5-dihydro-3H-2,4,6,11,12a-pentaazabenzo[4,5]cycloocta[1,2,3-cd]inden-3-one]: the IC50 in assay [1] (setting [5]) and in assay [2] (setting [6]) was less than 10 nM throughout.
With `O=C1OCc2ccc(C(F)(F)F)cc2-c2cnc(NCc3c(F)ccc4c3CCO4)n3cnc1c23` [compound 24, 12-(((5-fluoro-2,3-dihydrobenzofuran-4-yl)methyl)amino)-8-(trifluoromethyl)-3H,5H-4-oxa-2,11,12a-triazabenzo[4,5]cycloocta[1,2,3-cd]inden-3-one], the IC50 was 38.4 nM in assay [1] (setting [3]) and greater than 100 nM in assay [2] (setting [4]).
On the same counts, the results for `O=C1OCc2c(F)cccc2-c2cnc(NCc3c(F)ccc4c3CCO4)n3cnc1c23` [compound 11, 6-fluoro-12-(((5-fluoro-2,3-dihydrobenzofuran-4-yl)methyl)amino)-3H,5H-4-oxa-2,11,12a-triazabenzo[4,5]cycloocta[1,2,3-cd]inden-3-one] are 1.22 nM and 4.61 nM.
On the same counts, the results for `O=C1c2ncn3c(NCc4c(F)ccc5c4CCO5)ncc(c23)-c2cnc(C(F)(F)F)cc2CN1C1CC1` [Cpd. No. 36, 4-cyclopropyl-12-(((5-fluoro-2,3-dihydrobenzofuran-4-yl)methyl)amino)-7-(trifluoromethyl)-4,5-dihydro-3H-2,4,8,11,12a-pentaazabenzo[4,5]cycloocta[1,2,3-cd]inden-3-one] are 1.04 nM and 5.66 nM.
With `CC(C)(C)c1cc2c(cn1)-c1cnc(NCc3c(F)ccc4c3CCO4)n3cnc(c13)C(=O)N(CC(F)(F)F)C2` [E 46, 7-(tert-butyl)-12-(((5-fluoro-2,3-dihydrobenzofuran-4-yl)methyl)amino)-4-(2,2,2-trifluoroethyl)-4,5-dihydro-3H-2,4,8,11,12a-pentaazabenzo[4,5]cycloocta[1,2,3-cd]inden-3-one], the IC50 in assay [1] (setting [5]) and in assay [2] (setting [6]) was less than 10 nM throughout.
Turning to `Cc1ccc2c(n1)CCS(=O)(=O)c1ncn3c(NCc4c(F)ccc5c4CCO5)ncc-2c13` [compound 97, 12-(((5-fluoro-2,3-dihydrobenzofuran-4-yl)methyl)amino)-7-methyl-4,5-dihydro-3-thia-2,6,11,12a-tetraazabenzo[4,5]cycloocta[1,2,3-cd]indene 3,3-dioxide], the IC50 came to 0.058 nM in assay [1] (setting [3]) and 1.85 nM in assay [2] (setting [4]).
For `CN1Cc2nc(C(F)(F)F)ccc2-c2cnc(NCc3c(F)ccc4c3CCO4)n3cnc(c23)C1=O` [compound 33, 12-(((5-fluoro-2,3-dihydrobenzofuran-4-yl)methyl)amino)-4-methyl-7-(trifluoromethyl)-4,5-dihydro-3H-2,4,6,11,12a-pentaazabenzo[4,5]cycloocta[1,2,3-cd]inden-3-one], the IC50 in assay [1] (setting [3]) was found to be 0.22 nM; in assay [2] (setting [4]), 1.11 nM.
Turning to `O=C1NCc2cc(C(F)(F)F)ncc2-c2cnc(NCc3c(F)ccc4c3CCO4)n3cnc1c23` [compound 22, 12-(((5-fluoro-2,3-dihydrobenzofuran-4-yl)methyl)amino)-7-(trifluoromethyl)-4,5-dihydro-3H-2,4,8,11,12a-pentaazabenzo[4,5]cycloocta[1,2,3-cd]inden-3-one], the results for the IC50 in assay [1] (setting [3]) and in assay [2] (setting [4]) were 4.88 nM and 45.6 nM, respectively.
On to `CCc1ccc2c(n1)CN(CC(C)(F)F)C(=O)c1ncn3c(NCc4c(F)ccc5c4CCO5)ncc-2c13` [E 16, 4-(2,2-difluoropropyl)-7-ethyl-12-(((5-fluoro-2,3-dihydrobenzofuran-4-yl)methyl)amino)-4,5-dihydro-3H-2,4,6,11,12a-pentaazabenzo[4,5]cycloocta[1,2,3-cd]inden-3-one], for which the IC50 in assay [1] (setting [5]) and in assay [2] (setting [6]) was less than 10 nM throughout.
As to `Cc1cnc2n1Cc1ncccc1-c1cnc(NCc3c(F)ccc4c3CCO4)n3cnc-2c13` [E 17, N-((5-fluoro-2,3-dihydrobenzofuran-4-yl)methyl)-5-methyl-6H-2,3,5a,7,12,13a-hexaazabenzo[4,5]cyclopenta[7,8]cycloocta[1,2,3-cd]inden-13-amine], the IC50 in assay [1] (setting [5]) and in assay [2] (setting [6]) was 10 to 100 nM throughout.
Consider `O=C1c2ncn3c(NCc4c(F)ccc5c4CCO5)ncc(c23)-c2ccc(C3CCC3)nc2CN1CC(F)(F)F` [E 52, 7-cyclobutyl-12-(((5-fluoro-2,3-dihydrobenzofuran-4-yl)methyl)amino)-4-(2,2,2-trifluoroethyl)-4,5-dihydro-3H-2,4,6,11,12a-pentaazabenzo[4,5]cycloocta[1,2,3-cd]inden-3-one], for which the IC50 in assay [1] (setting [5]) and in assay [2] (setting [6]) was less than 10 nM throughout.
Turning to `Cc1ccc2c(n1)Cn1ccnc1-c1ncn3c(NCc4c(F)ccc5c4CCO5)ncc-2c13` [E 34, N-((5-fluoro-2,3-dihydrobenzofuran-4-yl)methyl)-8-methyl-6H-2,3,5a,7,12,13a-hexaazabenzo[4,5]cyclopenta[7,8]cycloocta[1,2,3-cd]inden-13-amine], the IC50 in assay [1] (setting [5]) is less than 10 nM; in assay [2] (setting [6]), 10 to 100 nM.
In the case of `O=C1NCc2nc(C(F)(F)F)ccc2-c2cnc(NCc3c(F)ccc4c3CCO4)n3cnc1c23` [compound 25, 12-(((5-fluoro-2,3-dihydrobenzofuran-4-yl)methyl)amino)-7-(trifluoromethyl)-4,5-dihydro-3H-2,4,6,11,12a-pentaazabenzo[4,5]cycloocta[1,2,3-cd]inden-3-one], the values for the IC50 in assay [1] (setting [3]) and in assay [2] (setting [4]) were 0.29 nM and 16.5 nM, respectively.
For the compound `CCc1cnc2n1Cc1cc(C(F)(F)F)ncc1-c1cnc(NCc3c(F)ccc4c3CCO4)n3cnc-2c13` [E 37, 5-ethyl-N-((5-fluoro-2,3-dihydrobenzofuran-4-yl)methyl)-8-(trifluoromethyl)-6H-2,3,5a,9,12,13a-hexaazabenzo[4,5]cyclopenta[7,8]cycloocta[1,2,3-cd]inden-13-amine], the IC50 in assay [1] (setting [5]) and in assay [2] (setting [6]) was 10 to 100 nM in each case.
Take `O=C1c2ncn3c(NCc4c(F)ccc5c4CCO5)ncc(c23)-c2cnc(C(F)(F)F)cc2CN1CC(F)(F)F` [compound 84, 12-(((5-fluoro-2,3-dihydrobenzofuran-4-yl)methyl)amino)-4-(2,2,2-trifluoroethyl)-7-(trifluoromethyl)-4,5-dihydro-3H-2,4,8,11,12a-pentaazabenzo[4,5]cycloocta[1,2,3-cd]inden-3-one]: the IC50 in assay [1] (setting [3]) stood at 0.048 nM; in assay [2] (setting [4]), 1.48 nM.
Turning to `CN1Cc2cc(C(F)(F)F)ncc2-c2cnc(NCc3c(F)ccc4c3CCO4)n3cnc(c23)C1=O` [compound 34, 12-(((5-fluoro-2,3-dihydrobenzofuran-4-yl)methyl)amino)-4-methyl-7-(trifluoromethyl)-4,5-dihydro-3H-2,4,8,11,12a-pentaazabenzo[4,5]cycloocta[1,2,3-cd]inden-3-one], the IC50 came to 0.35 nM in assay [1] (setting [3]) and 2.64 nM in assay [2] (setting [4]).
For `O=S1(=O)CCc2cc(F)ccc2-c2cnc(NCc3c(F)ccc4c3CCO4)n3cnc1c23` [compound 96, 7-fluoro-12-(((5-fluoro-2,3-dihydrobenzofuran-4-yl)methyl)amino)-4,5-dihydro-3-thia-2,11,12a-triazabenzo[4,5]cycloocta[1,2,3-cd]indene 3,3-dioxide], in that order: 0.056 nM and 21.2 nM.
On the same counts, the results for `O=C1OCc2ncccc2-c2cnc(NCc3c(F)ccc4occc34)n3cnc1c23` [compound 10, 12-(((5-fluorobenzofuran-4-yl)methyl)amino)-3H,5H-4-oxa-2,6,11,12a-tetraazabenzo[4,5]cycloocta[1,2,3-cd]inden-3-one] are 2.93 nM and 15.8 nM.
On the same counts, the results for `O=C1NCc2ccc(F)cc2-c2cnc(NCc3c(F)ccc4c3CCO4)n3cnc1c23` [compound 23, 8-fluoro-12-(((5-fluoro-2,3-dihydrobenzofuran-4-yl)methyl)amino)-4,5-dihydro-3H-2,4,11,12a-tetraazabenzo[4,5]cycloocta[1,2,3-cd]inden-3-one] are 9.95 nM and 89.2 nM.
